Measurements taken from paper PMC12749252 (Nature Communications, 2025).

How the values were obtained:
GCN2 = GCN2 (Homo sapiens, UniProt Q9P2K8); assay: Eurofins KinaseProfiler in vitro; assay type: biochemical
WEE1 = WEE1 (Homo sapiens, UniProt P30291); assay: NanoBRET target engagement in HEK293 cells; assay type: cell-based
WEE1, sequence (P30291 whole entry): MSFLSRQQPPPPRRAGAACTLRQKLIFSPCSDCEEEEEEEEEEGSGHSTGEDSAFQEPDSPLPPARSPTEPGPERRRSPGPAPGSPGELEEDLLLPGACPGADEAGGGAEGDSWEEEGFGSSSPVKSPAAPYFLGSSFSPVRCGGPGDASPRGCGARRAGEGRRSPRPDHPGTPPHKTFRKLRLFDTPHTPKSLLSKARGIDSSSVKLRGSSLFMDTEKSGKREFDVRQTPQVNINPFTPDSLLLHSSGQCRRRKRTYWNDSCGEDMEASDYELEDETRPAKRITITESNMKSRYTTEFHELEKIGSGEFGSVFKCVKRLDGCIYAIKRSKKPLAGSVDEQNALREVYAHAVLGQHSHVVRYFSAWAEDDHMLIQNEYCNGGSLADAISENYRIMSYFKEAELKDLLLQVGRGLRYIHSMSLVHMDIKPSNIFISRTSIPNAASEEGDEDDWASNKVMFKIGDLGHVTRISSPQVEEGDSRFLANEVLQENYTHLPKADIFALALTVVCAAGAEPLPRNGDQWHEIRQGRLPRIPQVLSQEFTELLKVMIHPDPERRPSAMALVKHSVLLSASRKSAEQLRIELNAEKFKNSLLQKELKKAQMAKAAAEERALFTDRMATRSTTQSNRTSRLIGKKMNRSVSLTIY

GCN2, sequence (Q9P2K8 whole entry): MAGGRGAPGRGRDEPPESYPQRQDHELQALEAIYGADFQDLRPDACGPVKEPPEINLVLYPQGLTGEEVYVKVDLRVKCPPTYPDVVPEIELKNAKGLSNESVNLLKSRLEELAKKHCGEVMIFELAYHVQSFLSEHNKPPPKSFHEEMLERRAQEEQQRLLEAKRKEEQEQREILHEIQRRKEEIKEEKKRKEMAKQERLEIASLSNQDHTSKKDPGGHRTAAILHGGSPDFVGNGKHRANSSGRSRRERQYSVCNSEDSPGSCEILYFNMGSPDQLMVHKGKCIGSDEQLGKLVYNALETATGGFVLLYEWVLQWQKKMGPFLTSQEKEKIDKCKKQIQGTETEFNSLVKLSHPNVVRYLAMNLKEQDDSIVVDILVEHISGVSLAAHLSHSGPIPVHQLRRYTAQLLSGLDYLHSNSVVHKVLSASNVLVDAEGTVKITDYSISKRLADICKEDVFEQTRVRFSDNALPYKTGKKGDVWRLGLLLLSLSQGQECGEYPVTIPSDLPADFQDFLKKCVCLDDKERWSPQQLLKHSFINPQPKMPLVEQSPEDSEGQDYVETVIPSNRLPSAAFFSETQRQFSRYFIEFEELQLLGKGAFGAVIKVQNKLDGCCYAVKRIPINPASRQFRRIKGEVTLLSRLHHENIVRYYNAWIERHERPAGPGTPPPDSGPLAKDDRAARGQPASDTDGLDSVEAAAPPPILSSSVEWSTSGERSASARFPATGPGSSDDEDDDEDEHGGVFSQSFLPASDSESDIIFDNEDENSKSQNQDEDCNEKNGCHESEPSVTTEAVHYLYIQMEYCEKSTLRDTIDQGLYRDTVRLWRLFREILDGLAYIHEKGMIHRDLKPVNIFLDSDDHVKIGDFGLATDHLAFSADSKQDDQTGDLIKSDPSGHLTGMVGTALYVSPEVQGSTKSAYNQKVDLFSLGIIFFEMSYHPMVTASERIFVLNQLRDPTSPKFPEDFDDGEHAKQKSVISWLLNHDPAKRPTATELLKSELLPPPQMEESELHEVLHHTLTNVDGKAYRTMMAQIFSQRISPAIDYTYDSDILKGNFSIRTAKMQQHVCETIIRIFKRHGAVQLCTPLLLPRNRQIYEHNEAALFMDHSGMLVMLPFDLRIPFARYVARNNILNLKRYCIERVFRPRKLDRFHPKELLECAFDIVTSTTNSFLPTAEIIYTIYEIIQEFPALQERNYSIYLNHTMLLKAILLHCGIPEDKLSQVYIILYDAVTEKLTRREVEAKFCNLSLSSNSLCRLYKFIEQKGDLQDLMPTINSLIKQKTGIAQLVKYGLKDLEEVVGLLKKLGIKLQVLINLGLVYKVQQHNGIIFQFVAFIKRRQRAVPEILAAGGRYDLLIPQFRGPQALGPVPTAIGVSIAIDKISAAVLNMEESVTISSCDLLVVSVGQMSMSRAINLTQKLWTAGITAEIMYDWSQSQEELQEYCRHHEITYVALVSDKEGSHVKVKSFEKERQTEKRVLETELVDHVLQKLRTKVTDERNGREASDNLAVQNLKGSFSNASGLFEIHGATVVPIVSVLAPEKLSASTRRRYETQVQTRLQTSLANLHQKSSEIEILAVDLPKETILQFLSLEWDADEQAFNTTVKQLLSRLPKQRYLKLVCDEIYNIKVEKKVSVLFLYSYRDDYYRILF

`C=CCn1c(=O)c2cnc(Nc3ccc(N4CCN(C)CC4)cc3)nc2n1-c1cccc(C(C)(C)O)n1` [AZD1775] was tested, and the IC50 (GCN2) was 140 nM.
In the case of `Cc1cc2c(C(N)=O)c(N)n(-c3c(C)ccc(O)c3C)c2nc1C` [RP-6306], the “NanoBRET target engagement in HEK293 cells (only at high doses)” value (WEE1) is reported as “while PKMYT1i only interacted at high doses (Fig. 5c)”.
